PubChem BioAssay (NCI)
“And” between values parts separate entries of the source, which are not always exact repeats. Equal entries are not always repeated.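 Where inhibition never reached the appropriate level, the endpoint shown equals the highest concentration tested. Otherwise, values were interpolated linearly from a five-concentration, 48-hour dose response in 96-well plates. TGI: concentration producing complete growth inhibition.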

Legend:
Test in all cases: growth of human tumour cells (NCI), 48 h
OVCAR-4 ovarian = tested on: OVCAR-4 ovarian
A549 NSCLC = tested on: A549 NSCLC
786-0 renal = tested on: 786-0 renal
SK-OV-3 ovarian = tested on: SK-OV-3 ovarian
OVCAR-3 ovarian = tested on: OVCAR-3 ovarian
M14 melanoma = tested on: M14 melanoma
NCI-H226 lung = tested on: NCI-H226 lung
PC-3 prostate = tested on: PC-3 prostate
SK-MEL-28 melanoma = tested on: SK-MEL-28 melanoma
SK-MEL-2 melanoma = tested on: SK-MEL-2 melanoma
UACC-257 melanoma = tested on: UACC-257 melanoma
BT-549 breast = tested on: BT-549 breast

## CC(=O)OI1NC(=O)c2ccccc21
OVCAR-4 ovarian
  TGI: > 100 µM
A549 NSCLC
  TGI: > 100 µM
786-0 renal
  TGI: > 100 µM
SK-OV-3 ovarian
  TGI: > 100 µM
OVCAR-3 ovarian
  TGI: > 100 µM
M14 melanoma
  TGI: > 100 µM
NCI-H226 lung
  TGI: > 100 µM
PC-3 prostate
  TGI: > 100 µM
SK-MEL-28 melanoma
  TGI: > 100 µM
SK-MEL-2 melanoma
  TGI: > 100 µM

## Cc1c(O)c(=O)ccn1CCN
OVCAR-4 ovarian
  TGI: > 100 µM
A549 NSCLC
  TGI: > 100 µM
786-0 renal
  TGI: > 100 µM
SK-OV-3 ovarian
  TGI: > 100 µM
M14 melanoma
  TGI: > 100 µM
NCI-H226 lung
  TGI: > 100 µM
UACC-257 melanoma
  TGI: > 100 µM
SK-MEL-28 melanoma
  TGI: > 100 µM
SK-MEL-2 melanoma
  TGI: > 100 µM

## CC1=C(c2nc3ccccc3s2)C(=O)OC1(C)C
OVCAR-4 ovarian
  TGI: > 100 µM
A549 NSCLC
  TGI: > 100 µM
786-0 renal
  TGI: > 100 µM
SK-OV-3 ovarian
  TGI: > 100 µM
OVCAR-3 ovarian
  TGI: > 100 µM
M14 melanoma
  TGI: > 100 µM
NCI-H226 lung
  TGI: > 100 µM
UACC-257 melanoma
  TGI: > 100 µM
SK-MEL-28 melanoma
  TGI: > 100 µM
SK-MEL-2 melanoma
  TGI: > 100 µM

## CC1=CC(=O)CC2(C)CCC(C(C)CC(=O)CC(C)C)CC12OO (stereo unspecified)
OVCAR-4 ovarian
  TGI: 29.8 µM and > 100 µM
A549 NSCLC
  TGI: 30 µM and 31.1 µM
786-0 renal
  TGI: 22.7 µM and 26 µM
M14 melanoma
  TGI: 32.4 µM and 30.1 µM
NCI-H226 lung
  TGI: 43.5 µM and 37.7 µM
UACC-257 melanoma
  TGI: 31.5 µM and 33 µM
PC-3 prostate
  TGI: 29.1 µM and 27.3 µM
SK-MEL-28 melanoma
  TGI: 28.5 µM and 32.5 µM
SK-MEL-2 melanoma
  TGI: 37.9 µM and 31.9 µM

## COC(=O)C1CC2C=CC=CC(=O)C2(C)C1 (stereo unspecified)
OVCAR-4 ovarian
  TGI: > 100 µM
A549 NSCLC
  TGI: > 100 µM
786-0 renal
  TGI: > 100 µM
SK-OV-3 ovarian
  TGI: > 100 µM
OVCAR-3 ovarian
  TGI: > 100 µM
M14 melanoma
  TGI: 88.5 µM
NCI-H226 lung
  TGI: > 100 µM
UACC-257 melanoma
  TGI: > 100 µM
SK-MEL-2 melanoma
  TGI: > 100 µM

## COc1ccc(C2=Nc3c(nc(OC)[nH]c3=O)NC(c3ccccc3)C2)cc1 (stereo unspecified)
A549 NSCLC
  TGI: > 100 µM
786-0 renal
  TGI: 93.6 µM
OVCAR-3 ovarian
  TGI: > 100 µM
M14 melanoma
  TGI: > 100 µM
BT-549 breast
  TGI: > 100 µM
NCI-H226 lung
  TGI: > 100 µM
UACC-257 melanoma
  TGI: > 100 µM
PC-3 prostate
  TGI: > 100 µM
SK-MEL-28 melanoma
  TGI: 42.7 µM
SK-MEL-2 melanoma
  TGI: > 100 µM

## O=C(NCCN1CCCCC1)c1ccc(Br)cc1
OVCAR-4 ovarian
  TGI: > 100 µM
A549 NSCLC
  TGI: > 100 µM
786-0 renal
  TGI: > 100 µM
SK-OV-3 ovarian
  TGI: > 100 µM
OVCAR-3 ovarian
  TGI: > 100 µM
M14 melanoma
  TGI: > 100 µM
BT-549 breast
  TGI: > 100 µM
UACC-257 melanoma
  TGI: > 100 µM
PC-3 prostate
  TGI: > 100 µM
SK-MEL-28 melanoma
  TGI: > 100 µM
SK-MEL-2 melanoma
  TGI: > 100 µM

## O=C1CN(c2ccccc2)Cc2nc(Cl)ccc2N1
OVCAR-4 ovarian
  TGI: > 100 µM
A549 NSCLC
  TGI: > 100 µM
786-0 renal
  TGI: > 100 µM
SK-OV-3 ovarian
  TGI: > 100 µM
M14 melanoma
  TGI: > 100 µM
BT-549 breast
  TGI: > 100 µM
NCI-H226 lung
  TGI: > 100 µM
UACC-257 melanoma
  TGI: > 100 µM
PC-3 prostate
  TGI: > 100 µM
SK-MEL-28 melanoma
  TGI: > 100 µM
SK-MEL-2 melanoma
  TGI: > 100 µM

## CC(=O)Nc1[nH]n(C)c(=O)c1-c1nnc(C)s1
OVCAR-4 ovarian
  TGI: > 100 µM
A549 NSCLC
  TGI: > 100 µM
786-0 renal
  TGI: > 100 µM
SK-OV-3 ovarian
  TGI: > 100 µM
OVCAR-3 ovarian
  TGI: > 100 µM
M14 melanoma
  TGI: > 100 µM
NCI-H226 lung
  TGI: > 100 µM
UACC-257 melanoma
  TGI: > 100 µM
SK-MEL-28 melanoma
  TGI: > 100 µM
SK-MEL-2 melanoma
  TGI: > 100 µM

## COc1ccc(N2C(=O)c3c(c4[nH]c5ccccc5c4c4ccc(C(C)(C)C)cc34)C2=O)cc1
OVCAR-4 ovarian
  TGI: 52.9 µM
A549 NSCLC
  TGI: > 100 µM
786-0 renal
  TGI: > 100 µM
SK-OV-3 ovarian
  TGI: > 100 µM
OVCAR-3 ovarian
  TGI: 53.6 µM
M14 melanoma
  TGI: > 100 µM
NCI-H226 lung
  TGI: > 100 µM
UACC-257 melanoma
  TGI: > 100 µM
SK-MEL-28 melanoma
  TGI: > 100 µM
SK-MEL-2 melanoma
  TGI: 71.8 µM

## COc1ccc(Nc2nc3ccccc3n3cccc23)cc1OC
A549 NSCLC
  TGI: 43.6 µM
786-0 renal
  TGI: 35 µM
SK-OV-3 ovarian
  TGI: 63.5 µM
OVCAR-3 ovarian
  TGI: 42.8 µM
M14 melanoma
  TGI: 30.7 µM
BT-549 breast
  TGI: 49.3 µM
UACC-257 melanoma
  TGI: 29.4 µM
PC-3 prostate
  TGI: 23.9 µM
SK-MEL-28 melanoma
  TGI: 28.9 µM
SK-MEL-2 melanoma
  TGI: 33.3 µM

## CC1(C)C2CCC3CC(CCC#N)CCC3C21C#N (stereo unspecified)
OVCAR-4 ovarian
  TGI: > 100 µM
A549 NSCLC
  TGI: > 100 µM
786-0 renal
  TGI: > 100 µM
SK-OV-3 ovarian
  TGI: > 100 µM
OVCAR-3 ovarian
  TGI: > 100 µM
M14 melanoma
  TGI: > 100 µM
NCI-H226 lung
  TGI: > 100 µM
UACC-257 melanoma
  TGI: > 100 µM
PC-3 prostate
  TGI: > 100 µM
SK-MEL-28 melanoma
  TGI: > 100 µM
SK-MEL-2 melanoma
  TGI: > 100 µM

## O=Cc1c[nH]c2c(=O)[nH]cnc12
A549 NSCLC
  TGI: > 100 µM
786-0 renal
  TGI: > 100 µM
SK-OV-3 ovarian
  TGI: > 100 µM
OVCAR-3 ovarian
  TGI: > 100 µM
M14 melanoma
  TGI: > 100 µM
UACC-257 melanoma
  TGI: > 100 µM
SK-MEL-28 melanoma
  TGI: > 100 µM
SK-MEL-2 melanoma
  TGI: > 100 µM

## CO/C(N)=C(\C#N)N=Cc1ccc2ccccc2c1
A549 NSCLC
  TGI: > 100 µM
786-0 renal
  TGI: > 100 µM
SK-OV-3 ovarian
  TGI: > 100 µM
OVCAR-3 ovarian
  TGI: > 100 µM
BT-549 breast
  TGI: > 100 µM
NCI-H226 lung
  TGI: > 100 µM
UACC-257 melanoma
  TGI: 91.3 µM
PC-3 prostate
  TGI: > 100 µM
SK-MEL-28 melanoma
  TGI: > 100 µM
SK-MEL-2 melanoma
  TGI: > 100 µM

## CC(C)(C)N=CN1C=Cc2nc3ccccc3cc2C1
OVCAR-4 ovarian
  TGI: > 100 µM
A549 NSCLC
  TGI: > 100 µM
786-0 renal
  TGI: > 100 µM
SK-OV-3 ovarian
  TGI: > 100 µM
OVCAR-3 ovarian
  TGI: > 100 µM
M14 melanoma
  TGI: > 100 µM
UACC-257 melanoma
  TGI: > 100 µM
SK-MEL-28 melanoma
  TGI: > 100 µM
SK-MEL-2 melanoma
  TGI: > 100 µM

## CCCCCCCC/C=C1\CCC(CN(C)C)C1=O (stereo unspecified)
OVCAR-4 ovarian
  TGI: 29.1 µM
A549 NSCLC
  TGI: 39.9 µM
786-0 renal
  TGI: 2.88 µM
SK-OV-3 ovarian
  TGI: 30.9 µM
OVCAR-3 ovarian
  TGI: 22 µM
M14 melanoma
  TGI: 12 µM
NCI-H226 lung
  TGI: 37.3 µM
UACC-257 melanoma
  TGI: 16.8 µM
SK-MEL-28 melanoma
  TGI: 13.3 µM
SK-MEL-2 melanoma
  TGI: 24.6 µM

## CCOC(=O)N/N=C(/N)c1cccc(Br)c1
OVCAR-4 ovarian
  TGI: > 100 µM
A549 NSCLC
  TGI: > 100 µM
786-0 renal
  TGI: > 100 µM
SK-OV-3 ovarian
  TGI: > 100 µM
OVCAR-3 ovarian
  TGI: > 100 µM
M14 melanoma
  TGI: > 100 µM
BT-549 breast
  TGI: > 100 µM
UACC-257 melanoma
  TGI: > 100 µM
PC-3 prostate
  TGI: > 100 µM
SK-MEL-2 melanoma
  TGI: > 100 µM

## O=C1N=C2SC=C(NC(=S)Nc3ccccc3)N2NC12c1ccccc1-c1ccccc12
OVCAR-4 ovarian
  TGI: > 10 µM
A549 NSCLC
  TGI: > 10 µM
786-0 renal
  TGI: > 10 µM
SK-OV-3 ovarian
  TGI: > 10 µM
M14 melanoma
  TGI: > 10 µM
BT-549 breast
  TGI: > 10 µM
NCI-H226 lung
  TGI: > 10 µM
UACC-257 melanoma
  TGI: > 10 µM
PC-3 prostate
  TGI: > 10 µM
SK-MEL-28 melanoma
  TGI: > 10 µM

## CCOC(=O)c1c2ccc(/C=C/c3ccccn3)ccc-2c(C(=O)OCC)c1N
OVCAR-4 ovarian
  TGI: > 100 µM
A549 NSCLC
  TGI: > 100 µM
786-0 renal
  TGI: > 100 µM
SK-OV-3 ovarian
  TGI: > 100 µM
OVCAR-3 ovarian
  TGI: > 100 µM
M14 melanoma
  TGI: > 100 µM
NCI-H226 lung
  TGI: > 100 µM
UACC-257 melanoma
  TGI: > 100 µM
SK-MEL-28 melanoma
  TGI: 1.49 µM
SK-MEL-2 melanoma
  TGI: > 100 µM

## Nc1nc(NNc2cccc(F)c2)cc(=O)[nH]1
OVCAR-4 ovarian
  TGI: > 100 µM
A549 NSCLC
  TGI: > 100 µM
786-0 renal
  TGI: 37.5 µM
OVCAR-3 ovarian
  TGI: 51.5 µM
M14 melanoma
  TGI: > 100 µM
BT-549 breast
  TGI: > 100 µM
NCI-H226 lung
  TGI: > 100 µM
UACC-257 melanoma
  TGI: > 100 µM
PC-3 prostate
  TGI: 59.7 µM
SK-MEL-28 melanoma
  TGI: > 100 µM

## CN(C)CCN(C)P12(Oc3ccccc3O1)Oc1c(Cl)c(Cl)c(Cl)c(Cl)c1O2
OVCAR-4 ovarian
  TGI: > 100 µM
A549 NSCLC
  TGI: > 100 µM
786-0 renal
  TGI: > 100 µM
SK-OV-3 ovarian
  TGI: > 100 µM
OVCAR-3 ovarian
  TGI: > 100 µM
M14 melanoma
  TGI: > 100 µM
BT-549 breast
  TGI: > 100 µM
NCI-H226 lung
  TGI: > 100 µM
UACC-257 melanoma
  TGI: 85.5 µM
PC-3 prostate
  TGI: > 100 µM
SK-MEL-28 melanoma
  TGI: > 100 µM

## COC(=O)C1(NC(=O)C(Cc2ccccc2)N(C(=O)OC(C)(C)C)C(=O)OC(C)(C)C)CCCC1 (stereo unspecified)
A549 NSCLC
  TGI: > 100 µM
786-0 renal
  TGI: > 10 µM
SK-OV-3 ovarian
  TGI: > 100 µM
M14 melanoma
  TGI: > 100 µM
NCI-H226 lung
  TGI: > 100 µM
PC-3 prostate
  TGI: > 100 µM
SK-MEL-28 melanoma
  TGI: > 100 µM
SK-MEL-2 melanoma
  TGI: > 100 µM
